{"source": "paper PMC8308925", "about": "(Pharmaceuticals, 2021)", "key": {"UGT1A1": {"molecular_target": "T1, UGT1A1 (Homo sapiens, UniProt P22309)", "T1 sequence (P22309 26-533)": "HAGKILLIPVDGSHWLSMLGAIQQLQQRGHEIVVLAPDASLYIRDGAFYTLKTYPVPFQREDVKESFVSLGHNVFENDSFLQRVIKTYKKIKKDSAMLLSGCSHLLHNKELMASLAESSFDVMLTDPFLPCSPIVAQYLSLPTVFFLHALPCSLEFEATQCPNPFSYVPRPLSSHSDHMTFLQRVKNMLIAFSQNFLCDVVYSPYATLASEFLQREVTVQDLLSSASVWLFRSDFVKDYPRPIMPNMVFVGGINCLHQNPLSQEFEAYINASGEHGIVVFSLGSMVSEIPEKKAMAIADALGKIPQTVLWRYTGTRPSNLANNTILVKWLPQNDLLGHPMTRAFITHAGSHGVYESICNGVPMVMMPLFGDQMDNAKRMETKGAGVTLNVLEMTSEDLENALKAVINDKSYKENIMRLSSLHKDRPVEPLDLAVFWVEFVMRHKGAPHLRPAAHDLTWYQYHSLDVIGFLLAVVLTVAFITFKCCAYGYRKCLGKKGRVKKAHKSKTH", "test": "biochemical"}, "UGT2B7": {"molecular_target": "T2, UGT2B7 (Homo sapiens, UniProt P16662)", "T2 sequence (P16662 24-529)": "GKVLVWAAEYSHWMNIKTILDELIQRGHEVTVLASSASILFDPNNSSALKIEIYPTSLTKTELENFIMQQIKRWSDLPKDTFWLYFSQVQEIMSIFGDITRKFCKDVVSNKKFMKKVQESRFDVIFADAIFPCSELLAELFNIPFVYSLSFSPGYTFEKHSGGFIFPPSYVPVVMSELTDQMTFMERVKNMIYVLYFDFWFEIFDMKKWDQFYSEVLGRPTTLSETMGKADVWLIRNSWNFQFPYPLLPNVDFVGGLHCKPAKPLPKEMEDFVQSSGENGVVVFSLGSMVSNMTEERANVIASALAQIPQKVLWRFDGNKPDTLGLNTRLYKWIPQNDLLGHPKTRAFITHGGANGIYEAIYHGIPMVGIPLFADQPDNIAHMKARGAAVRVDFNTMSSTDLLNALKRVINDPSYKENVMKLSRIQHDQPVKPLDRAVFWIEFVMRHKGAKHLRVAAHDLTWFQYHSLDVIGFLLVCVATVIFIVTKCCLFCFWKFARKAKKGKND", "test": "biochemical"}, "UGT1A4": {"molecular_target": "T3, UGT1A4 (Homo sapiens, UniProt P22310)", "T3 sequence (P22310 29-534)": "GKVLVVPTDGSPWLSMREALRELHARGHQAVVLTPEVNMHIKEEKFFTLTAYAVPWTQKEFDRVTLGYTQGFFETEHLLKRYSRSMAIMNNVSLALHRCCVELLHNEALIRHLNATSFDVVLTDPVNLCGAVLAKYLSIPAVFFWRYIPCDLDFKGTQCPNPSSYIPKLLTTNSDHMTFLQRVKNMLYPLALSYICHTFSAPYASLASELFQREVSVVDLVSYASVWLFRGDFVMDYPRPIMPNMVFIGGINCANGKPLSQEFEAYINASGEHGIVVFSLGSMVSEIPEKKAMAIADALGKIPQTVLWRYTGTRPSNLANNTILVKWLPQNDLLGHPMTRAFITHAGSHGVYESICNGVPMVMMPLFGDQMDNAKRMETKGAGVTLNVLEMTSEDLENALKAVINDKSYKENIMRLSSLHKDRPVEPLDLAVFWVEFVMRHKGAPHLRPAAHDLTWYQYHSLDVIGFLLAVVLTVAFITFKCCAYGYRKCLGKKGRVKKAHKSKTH", "test": "biochemical"}, "UGT1A9": {"molecular_target": "T4, UGT1A9 (Homo sapiens, UniProt O60656)", "T4 sequence (O60656 26-530)": "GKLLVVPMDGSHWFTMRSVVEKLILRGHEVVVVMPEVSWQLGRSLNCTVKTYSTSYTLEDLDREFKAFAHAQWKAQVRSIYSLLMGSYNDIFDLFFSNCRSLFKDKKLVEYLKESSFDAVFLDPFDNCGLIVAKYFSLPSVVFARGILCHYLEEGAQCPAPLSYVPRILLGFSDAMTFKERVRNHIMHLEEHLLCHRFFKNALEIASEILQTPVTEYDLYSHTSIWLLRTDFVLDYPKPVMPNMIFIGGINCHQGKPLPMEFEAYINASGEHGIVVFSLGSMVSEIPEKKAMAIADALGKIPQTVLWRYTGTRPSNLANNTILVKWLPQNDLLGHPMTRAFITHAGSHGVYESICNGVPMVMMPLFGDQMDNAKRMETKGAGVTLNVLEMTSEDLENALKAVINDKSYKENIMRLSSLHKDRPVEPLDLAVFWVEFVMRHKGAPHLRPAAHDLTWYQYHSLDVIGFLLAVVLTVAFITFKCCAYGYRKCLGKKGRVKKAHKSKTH", "test": "biochemical"}, "MATE1": {"molecular_target": "T5, MATE1 (Homo sapiens, UniProt Q96FL8)", "T5 sequence (Q96FL8 1-570)": "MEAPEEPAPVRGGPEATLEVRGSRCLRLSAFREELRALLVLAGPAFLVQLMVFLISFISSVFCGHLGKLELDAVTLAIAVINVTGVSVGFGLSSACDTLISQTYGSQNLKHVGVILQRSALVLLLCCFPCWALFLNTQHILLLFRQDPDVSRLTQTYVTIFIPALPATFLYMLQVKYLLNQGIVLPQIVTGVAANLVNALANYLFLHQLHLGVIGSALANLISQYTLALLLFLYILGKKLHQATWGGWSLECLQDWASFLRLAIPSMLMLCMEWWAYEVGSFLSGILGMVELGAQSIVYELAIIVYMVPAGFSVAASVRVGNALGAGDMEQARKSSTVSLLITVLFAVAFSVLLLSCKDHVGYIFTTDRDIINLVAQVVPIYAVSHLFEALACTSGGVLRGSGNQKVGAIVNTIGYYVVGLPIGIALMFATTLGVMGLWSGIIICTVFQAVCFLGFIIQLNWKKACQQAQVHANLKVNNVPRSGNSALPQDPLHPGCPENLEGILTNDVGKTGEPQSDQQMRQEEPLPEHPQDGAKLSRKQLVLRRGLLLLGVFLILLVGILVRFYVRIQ", "details": "4 µM probe substrate, HEK 293-MATE1", "experimental": "(§1) OCT1-, OCT2-, MATE1-, and MATE2K-overexpressing HEK 293 cells and mock cells. To\n(§2) aminohippuric acid for OAT1, 4 µM [14C]Metformin for OCT1, OCT2, MATE1, and\n(§3) lein for OATP2B1, 100 µM probenecid for OAT1, 100 µM verapamil for OCT1, 200 µM\n(§4) and MATE2K, respectively).\n(§5) and –MATE2K and mock cells."}, "MATE2K": {"molecular_target": "MATE2K (Homo sapiens, UniProt Q86VL8)", "sequence (Q86VL8 1-566 isoform Q86VL8-3)": "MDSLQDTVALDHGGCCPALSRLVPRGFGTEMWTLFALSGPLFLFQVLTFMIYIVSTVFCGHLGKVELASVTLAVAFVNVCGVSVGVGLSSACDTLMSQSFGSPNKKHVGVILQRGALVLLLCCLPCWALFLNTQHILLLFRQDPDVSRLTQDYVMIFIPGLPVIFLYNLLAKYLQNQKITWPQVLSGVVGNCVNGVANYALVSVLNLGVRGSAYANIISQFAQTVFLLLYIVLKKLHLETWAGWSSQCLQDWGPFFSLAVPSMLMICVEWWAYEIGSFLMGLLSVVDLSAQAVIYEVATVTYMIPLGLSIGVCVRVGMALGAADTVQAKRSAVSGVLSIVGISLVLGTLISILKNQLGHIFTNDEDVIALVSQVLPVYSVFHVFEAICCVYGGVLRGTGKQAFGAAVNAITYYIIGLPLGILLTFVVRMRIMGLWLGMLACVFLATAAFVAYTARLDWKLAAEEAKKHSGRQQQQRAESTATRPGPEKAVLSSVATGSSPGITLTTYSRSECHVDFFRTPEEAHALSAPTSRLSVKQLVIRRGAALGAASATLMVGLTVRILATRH", "details": "4 µM probe substrate, HEK 293-MATE2K", "experimental": "as §1, §2, §3, §4, §5"}, "OCT1": {"molecular_target": "T6, OCT1 (Homo sapiens, UniProt O15245)", "T6 sequence (O15245 1-554)": "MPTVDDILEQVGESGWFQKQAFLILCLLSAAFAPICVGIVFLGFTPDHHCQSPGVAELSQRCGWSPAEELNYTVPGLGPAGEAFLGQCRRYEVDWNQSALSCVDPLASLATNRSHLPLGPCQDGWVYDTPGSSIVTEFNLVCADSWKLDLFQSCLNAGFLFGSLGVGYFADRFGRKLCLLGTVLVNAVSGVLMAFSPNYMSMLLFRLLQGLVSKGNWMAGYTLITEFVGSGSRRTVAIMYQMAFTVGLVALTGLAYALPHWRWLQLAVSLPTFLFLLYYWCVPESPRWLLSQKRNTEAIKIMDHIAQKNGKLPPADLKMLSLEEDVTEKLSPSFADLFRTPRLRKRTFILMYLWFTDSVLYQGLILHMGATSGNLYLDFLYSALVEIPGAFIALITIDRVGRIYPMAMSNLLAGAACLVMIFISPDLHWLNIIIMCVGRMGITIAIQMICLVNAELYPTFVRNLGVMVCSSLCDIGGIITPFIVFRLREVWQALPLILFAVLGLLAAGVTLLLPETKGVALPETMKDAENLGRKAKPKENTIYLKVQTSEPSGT", "details": "4 µM probe substrate, HEK 293-OCT1", "experimental": "as §1, §2, §3, §4, §5"}, "OCT2": {"molecular_target": "T7, OCT2 (Homo sapiens, UniProt O15244)", "T7 sequence (O15244 1-555)": "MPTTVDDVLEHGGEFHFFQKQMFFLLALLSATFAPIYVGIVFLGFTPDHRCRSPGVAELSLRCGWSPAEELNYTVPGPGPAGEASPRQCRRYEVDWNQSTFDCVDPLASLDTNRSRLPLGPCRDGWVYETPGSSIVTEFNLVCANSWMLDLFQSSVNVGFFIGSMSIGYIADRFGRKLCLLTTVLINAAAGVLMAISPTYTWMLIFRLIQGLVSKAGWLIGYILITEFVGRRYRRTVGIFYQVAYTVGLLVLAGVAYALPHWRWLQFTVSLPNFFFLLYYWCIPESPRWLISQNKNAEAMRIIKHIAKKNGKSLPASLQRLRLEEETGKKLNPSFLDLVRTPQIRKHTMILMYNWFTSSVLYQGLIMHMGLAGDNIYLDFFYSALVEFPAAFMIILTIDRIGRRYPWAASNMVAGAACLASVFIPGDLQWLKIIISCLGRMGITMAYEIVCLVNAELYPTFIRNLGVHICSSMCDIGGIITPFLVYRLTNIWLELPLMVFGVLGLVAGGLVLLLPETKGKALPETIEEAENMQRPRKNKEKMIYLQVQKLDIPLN", "details": "4 µM probe substrate, HEK 293-OCT2", "experimental": "as §1, §2, §3, §4, §5"}, "ASBT": {"molecular_target": "T8, ASBT (Homo sapiens, UniProt Q12908)", "T8 sequence (Q12908 1-348)": "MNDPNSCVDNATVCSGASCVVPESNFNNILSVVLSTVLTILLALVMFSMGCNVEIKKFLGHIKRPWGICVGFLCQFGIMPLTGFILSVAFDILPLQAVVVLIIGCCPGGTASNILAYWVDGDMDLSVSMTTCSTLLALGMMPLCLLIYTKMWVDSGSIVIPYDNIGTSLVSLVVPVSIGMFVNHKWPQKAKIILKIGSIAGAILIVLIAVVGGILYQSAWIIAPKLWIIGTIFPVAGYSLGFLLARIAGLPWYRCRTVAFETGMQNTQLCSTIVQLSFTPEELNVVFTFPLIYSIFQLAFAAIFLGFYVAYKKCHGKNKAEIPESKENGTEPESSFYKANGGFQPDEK", "details": "inhibition of ASBT, implemented in DDI model; ref [38]; cited from earlier work"}, "OAT3": {"test_system": "OAT3", "details": "inhibition of OAT3, implemented in DDI model; ref [41]; cited from earlier work"}}, "data": [{"compound": "COC(=O)N[C@H](C(=O)N[C@@H](Cc1ccccc1)[C@@H](O)CN(Cc1ccc(-c2ccccn2)cc1)NC(=O)[C@@H](NC(=O)OC)C(C)(C)C)C(C)(C)C", "note": "[Atazanavir]", "values": [{"measurement": "IC50", "setting": "UGT1A1", "value": 0.29, "unit": "µM"}]}, {"compound": "O=C1Nc2ccc(Cl)cc2[C@@](C#CC2CC2)(C(F)(F)F)O1", "note": "[Efavirenz]", "values": [{"measurement": "IC50", "setting": "UGT2B7", "value": 27.3, "unit": "µM"}]}, {"compound": "C[C@@H]1CC[C@@]2(OC1)O[C@H]1C[C@H]3[C@@H]4CC[C@H]5C[C@@H](O)CC[C@]5(C)[C@H]4CC(=O)[C@]3(C)[C@H]1[C@@H]2C", "note": "[Hecogenin]", "values": [{"measurement": "IC50", "setting": "UGT1A4", "value": 2.1, "unit": "µM"}]}, {"compound": "O=C(O)c1cccnc1Nc1cccc(C(F)(F)F)c1", "note": "[Niflumic acid]", "values": [{"measurement": "IC50", "setting": "UGT1A9", "value": 0.28, "unit": "µM"}]}, {"compound": "CN(C)C(N)=NC(=N)N", "note": "[[14C]Metformin]", "values": [{"measurement": "Increase of probe substrate uptake rate in transporter-expressing cells compared to mock cells", "setting": "MATE1", "value": 18.3, "unit": "fold"}, {"measurement": "Increase of probe substrate uptake rate in transporter-expressing cells compared to mock cells", "setting": "MATE2K", "value": 4.2, "unit": "fold"}, {"measurement": "Increase of probe substrate uptake rate in transporter-expressing cells compared to mock cells", "setting": "OCT1", "value": 4.8, "unit": "fold"}, {"measurement": "Increase of probe substrate uptake rate in transporter-expressing cells compared to mock cells", "setting": "OCT2", "value": 8.0, "unit": "fold"}]}, {"compound": "CCc1ccc(CCOc2ccc(CC3SC(=O)NC3=O)cc2)nc1", "note": "(stereo not shown) [pioglitazone]", "values": [{"measurement": "Ki", "setting": "ASBT", "value": 54.6, "unit": "µM"}, {"measurement": "Ki", "setting": "OAT3", "value": 1.02, "unit": "µM"}]}]}
